According to patent US11466007B2, “Substituted lactams showing serotonin 5-HT receptor activity” (Sumitomo Pharma Co., Ltd., priority 2018, dated 2022):

assay: Test 4: metabolic stability test in human hepatic microsome; format: in vitro ADME; conditions: 0.1 mg/mL microsome, 0.1 μmol/L compound, NADPH, 37° C., 30 minutes
Experimental: Test 4: Metabolic Stability Test in Human Hepatic Microsome
The stability of the present compound in human hepatic microsome metabolism was evaluated as mentioned below. Human hepatic microsome was obtained from Xenontech. Human hepatic microsome, NADPH, and each test compound were mixed in 25 mmol/L phosphate buffer solution (pH 7.4) to reach the following concentrations as shown below, and the mixture was incubated at 37° C. for 30 minutes. • Human hepatic microsome: 0.1 mg/mL • NAPDH: 3.2 mmol/L • Test compound: 0.1 μmol/L
The residual ratio of the test compound in each sample after 30 minutes was measured by LC-MS, and the metabolic stability in human hepatic microsome was calculated from the following formula. Metabolic stability in human hepatic microsome (mL/min/mg protein)=−LN(residual ratio)/30/0.1

Compound	Metabolic stability in human hepatic microsome [mL/min/mg protein]
O=C1c2ncccc2CCN1CCN1CCN(c2noc3ccccc23)CC1 [Example 1, 7-{2-[4-(1,2-Benzoisoxazol-3-yl)piperazin-1-yl]ethyl}-6,7-dihydro-1,7-naphthyridin-8(5H)-one]	<0.01
COc1cc2c(cn1)C(=O)N(CCN1CCN(c3nsc4ccccc34)CC1)CC2 [Example 2, 2-{2-[4-(1,2-Benzoisothiazol-3-yl)piperazin-1-yl]ethyl}-6-methoxy-3,4-dihydro-2,7-naphthyridin-1(2H)-one]	0.22
O=C1c2ncccc2CCN1CCN1CCC(c2noc3cc(F)ccc23)CC1 [Example 4]	0.011
O=C1c2ncccc2CCN1CCN1CCC(c2noc3ccc(F)cc23)CC1 [Example 5]	<0.01
Cc1cc2c(C3CCN(CCN4CCc5cccnc5C4=O)CC3)noc2cc1F [Example 6]	0.061
O=C1c2ncccc2CCN1CCN1CCN(c2nsc3ccccc23)CC1 [Example 7]	0.041
O=c1c2ncccc2ccn1CCN1CCN(c2nsc3ccccc23)CC1 [Example 8]	0.064
O=C1c2cccnc2CCN1CCN1CCN(c2nsc3ccccc23)CC1 [Example 9]	0.100
O=c1c2ncccc2ccn1CCN1CCC(c2noc3cc(F)ccc23)CC1 [Example 12]	0.02
COc1cc2c(cn1)C(=O)N(CCN1CCC(c3noc4ccccc34)CC1)CC2 [Example 14]	<0.01
CC1CN(CCN2CCC(c3noc4ccccc34)CC2)C(=O)c2ncccc21 (stereo not drawn) [Example 15]	0.055
Cn1cnc2c1CCN(CCN1CCC(c3noc4ccccc34)CC1)C2=O [Example 16]	<0.01
Cn1cc2c(n1)CCN(CCN1CCC(c3noc4ccccc34)CC1)C2=O [Example 17]	<0.01
O=C1c2ncccc2CCC1CCN1CCC(c2noc3ccccc23)CC1 (stereo not drawn) [Example 24]	0.018
O=C1c2ncccc2CCN1CCN1CCC(c2nsc3ccccc23)CC1 [Example 26]	<0.01
O=C1c2ncccc2CCN1CCN1CCN(c2nsc3cc(F)ccc23)CC1 [Example 27]	0.048
Cn1ncc2c1CCC(CCN1CCC(c3noc4ccccc34)CC1)C2=O (stereo not drawn) [Example 28]	0.017
Cn1ncc2c1CCC(CCN1CCN(c3nsc4ccccc34)CC1)C2=O (stereo not drawn) [Example 29]	0.063
Cn1ncc2c1CCCC(CCN1CCC(c3noc4ccccc34)CC1)C2=O (stereo not drawn) [Example 30]	0.065
Cc1noc2c1C(=O)N(CCN1CCN(c3noc4ccccc34)CC1)CC2 [Example 32, 5-{2-[4-(1,2-Benzoisoxazol-3-yl)piperazin-1-yl]ethyl}-3-methyl-6,7-dihydro[1,2]oxazolo[4,5-c]pyridin-4(5H)-one]	<0.01
Cc1noc2c1C(=O)N(CCN1CCC(c3noc4ccccc34)CC1)CC2 [Example 33]	0.074
Cc1c2c(nn1C)CCN(CCN1CCC(c3noc4ccccc34)CC1)C2=O [Example 37, 5-{2-[4-(1,2-Benzoisoxazol-3-yl)piperidin-1-yl]ethyl}-2,3-dimethyl-2,5,6,7-tetrahydro-4H-pyrazolo[4,3-c]pyridin-4-one]	0.017
Cc1nc2c(o1)CCN(CCN1CCC(c3noc4ccccc34)CC1)C2=O [Example 39]	0.016
Cn1cc2c(n1)CCCN(CCN1CCC(c3noc4ccccc34)CC1)C2=O [Example 41]	<0.01
Cn1cc2c(n1)CCCN(CCN1CCN(c3nsc4ccccc34)CC1)C2=O [Example 42]	0.100
Cn1ncc2c1CCCN(CCN1CCN(c3nsc4ccccc34)CC1)C2=O [Example 44]	0.04
Cc1nc2c(o1)C(=O)N(CCN1CCN(c3nsc4ccccc34)CC1)CC2 [Example 45]	0.032

Compound	Metabolic stability in human hepatic microsome [mL/min/mg protein]
Cc1nc2c(o1)C(=O)N(CCN1CCN(c3nsc4ccccc34)CC1)CCC2 [Example 46]	0.018
Cn1cc2c(n1)C(=O)N(CCN1CCC(c3noc4ccccc34)CC1)CCC2 [Example 48]	<0.01
Cn1cc2c(n1)C(=O)N(CCN1CCN(c3nsc4ccccc34)CC1)CCC2 [Example 49]	0.063
Cn1cc2c(n1)C(=O)N(CCN1CCN(c3nsc4ccccc34)CC1)CC2 [Example 50]	0.038
Cc1nc2c(o1)CCN(CCN1CCN(c3nsc4ccccc34)CC1)C2=O [Example 51]	0.074
Cc1nc2c(o1)CCCN(CCN1CCN(c3nsc4ccccc34)CC1)C2=O [Example 52]	0.043
O=C1c2cncnc2CCN1CCN1CCC(c2noc3ccccc23)CC1 [Example 57]	0.013
O=C1c2cncnc2CCN1CCN1CCN(c2nsc3ccccc23)CC1 [Example 58]	0.092
Cn1ccc2c1CCN(CCN1CCN(c3nsc4ccccc34)CC1)C2=O [Example 61]	0.056
Cn1ncc2c1CCN(CCN1CCN(c3nsc4ccccc34)CC1)C2=O [Example 63]	<0.01
CCn1ncc2c1CCN(CCN1CCN(c3nsc4ccccc34)CC1)C2=O [Example 64]	0.064
O=C1c2oc(C3CC3)nc2CCN1CCN1CCC(c2noc3ccccc23)CC1 [Example 68]	0.056
O=C1c2cn(C3CC3)nc2CCN1CCN1CCC(c2noc3ccccc23)CC1 [Example 76]	0.018
Cn1ncc2c1CCCN(CCN1CCN(c3noc4ccccc34)CC1)C2=O [Example 80]	0.012
Cn1cc2c(n1)CCN(CCN1CCN(c3noc4ccccc34)CC1)C2=O [Example 81]	<0.01
CC1CN(CCN2CCC(c3noc4ccccc34)CC2)C(=O)c2ccn(C)c21 (stereo not drawn) [Example 82]	0.072
Cc1nccc2c1C(=O)N(CCN1CCN(c3noc4ccccc34)CC1)CC2 [Example 85]	0.046
Cc1ncc2c(n1)CCN(CCN1CCC(c3noc4ccccc34)CC1)C2=O [Example 88, 6-{2-[4-(1,2-Benzoisoxazol-3-yl)piperidin-1-yl]ethyl}-2-methyl-7,8-dihydropyrido[4,3-d]pyrimidin-5(6H)-one]	<0.01
Cc1ccc2onc(C3CCN(CCN4CCc5cccnc5C4=O)CC3)c2c1 [Example 89]	0.050
Cc1ncc2c(n1)CCN(CCN1CCN(c3nsc4ccccc34)CC1)C2=O [Example 90]	0.070
Cc1nn(C)c2c1C(=O)N(CCN1CCC(c3noc4ccccc34)CC1)CCC2 [Example 91]	<0.05
Cc1nn(C)c2c1C(=O)N(CCN1CCN(c3noc4ccccc34)CC1)CCC2 [Example 92]	0.065
O=C1c2cn[nH]c2CCCN1CCN1CCC(c2noc3ccccc23)CC1 [Example 97, 5-{2-[4-(1,2-Benzoisoxazol-3-yl)piperidin-1-yl]ethyl}-5,6,7,8-tetrahydropyrazolo[4,3-c]azepin-4(1H)-one]	<0.01
O=C1c2[nH]ncc2CCN1CCN1CCC(c2noc3ccccc23)CC1 [Example 98, 6-{2-[4-(1,2-Benzoisoxazol-3-yl)piperidin-1-yl]ethyl}-1,4,5,6-tetrahydro-7H-pyrazolo[3,4-c]pyridin-7-one]	0.013
Cc1n[nH]c2c1C(=O)N(CCN1CCC(c3noc4ccccc34)CC1)CC2 [Example 99, 5-{2-[4-(1,2-Benzoisoxazol-3-yl)piperidin-1-yl]ethyl}-3-methyl-1,5,6,7-tetrahydro-4H-pyrazolo[4,3-c]pyridin-4-one]	<0.01
Cn1ccc2c1CCCN(CCN1CCC(c3noc4ccccc34)CC1)C2=O [Example 103, 5-{2-[4-(1,2-Benzoisoxazol-3-yl)piperidin-1-yl]ethyl}-1-methyl-5,6,7,8-tetrahydropyrrolo[3,2-c]azepin-4(1H)-one]	<0.01
[2H]C([2H])([2H])Oc1cc2c(cn1)C(=O)N(CCN1CCN(c3nsc4ccccc34)CC1)CC2([2H])[2H] [Example 107, 2-{2-[4-(1,2-Benzoisothiazol-3-yl)piperazin-1-yl]ethyl}-6-[(^2H3)methyloxy](4,4-^2H2)-3,4-dihydro-2,7-naphthyridin-1(2H)-one]	0.210
